Laboratory results from ChEMBL document CHEMBL1201862, “PubChem BioAssay data set” (2004).
Active and inactive are the calls of the source.

Assays:
[1] = molecular target: T1, Disintegrin and metalloproteinase domain-containing protein 17 (Homo sapiens, UniProt P78536); assay: ADAM17 protease inhibitors, dose response, counter-screen for ADAM10 exosite inhibitor project, biochemical, quenched FRET substrate (AID 743253)
[2] = ADAM10 inhibitors, peptide cleavage, dose response, biochemical, QFRET (AID 743254);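 also: ADAM10 enzyme with the DM2 quenched FRET peptide as substrate; EDANS fluorescence gain as the protease cuts the substrate; inhibitor potency against ADAM10 proteolytic activity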
[3] = HEK293T cytotoxicity, dose response, cytotoxicity control for miR-122 modulator project, cell-based, inhibitor set, cherry-pick, set 2 (AID 720697); format: functional
[4] = Luminescence Cell-Based Dose Response HTS to Identify Activators of Luciferase Translation or Activity in H4 […] Cells. [Related pubchem assays: 1829 (Project Summary), 1814 (Primary HTS)]; format: functional
[5] = non-specific cell cytotoxicity, dose response, cytotoxicity control for PAX8 inhibitor project, plate reader, dry powder samples (AID 743021); format: functional, cell-based
Protein RecA = molecular target: T2, Protein RecA (Mycobacterium tuberculosis, UniProt P9WHJ3); assay: Fluorescence Cell-Free Homogeneous Dose Retest to Identify Inhibitors of RecA-Intein Splicing Activity. [Related pubchem assays (depositor defined):AID2097, AID2223, AID489010, AID492950]; format: functional
T2 sequence (P9WHJ3 whole entry): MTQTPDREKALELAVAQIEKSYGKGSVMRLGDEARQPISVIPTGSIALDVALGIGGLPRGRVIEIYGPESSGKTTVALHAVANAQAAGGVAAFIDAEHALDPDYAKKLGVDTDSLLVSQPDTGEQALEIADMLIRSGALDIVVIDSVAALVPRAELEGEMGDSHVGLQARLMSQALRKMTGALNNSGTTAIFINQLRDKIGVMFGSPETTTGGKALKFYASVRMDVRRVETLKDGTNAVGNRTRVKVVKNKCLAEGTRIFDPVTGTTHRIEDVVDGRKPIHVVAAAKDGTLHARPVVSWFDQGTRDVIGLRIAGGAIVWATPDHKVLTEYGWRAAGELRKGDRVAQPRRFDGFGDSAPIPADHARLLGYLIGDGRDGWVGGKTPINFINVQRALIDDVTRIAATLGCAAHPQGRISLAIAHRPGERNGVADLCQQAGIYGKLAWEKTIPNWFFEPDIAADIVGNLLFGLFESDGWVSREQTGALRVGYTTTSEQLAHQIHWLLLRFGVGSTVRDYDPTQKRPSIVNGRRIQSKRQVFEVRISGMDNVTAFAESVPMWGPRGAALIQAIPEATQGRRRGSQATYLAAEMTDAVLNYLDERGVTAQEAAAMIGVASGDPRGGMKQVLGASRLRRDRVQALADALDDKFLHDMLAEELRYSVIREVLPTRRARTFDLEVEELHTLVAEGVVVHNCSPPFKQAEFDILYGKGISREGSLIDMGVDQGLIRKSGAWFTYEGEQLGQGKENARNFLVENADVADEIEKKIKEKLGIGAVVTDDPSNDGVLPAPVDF

Paired box protein Pax-8 = Paired box protein Pax-8 (Homo sapiens, UniProt Q06710); assay: inhibitors of PAX8-driven TPO luciferase reporter, dose response, RMG-I cells, cherry-pick (AID 687027); format: functional, cell-based;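 also: luciferase reporter driven by Pax8 target thyroperoxidase promoter measured by SteadyGlo luminescence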
Chain of Paired box protein Pax-8 (Q06710 whole entry): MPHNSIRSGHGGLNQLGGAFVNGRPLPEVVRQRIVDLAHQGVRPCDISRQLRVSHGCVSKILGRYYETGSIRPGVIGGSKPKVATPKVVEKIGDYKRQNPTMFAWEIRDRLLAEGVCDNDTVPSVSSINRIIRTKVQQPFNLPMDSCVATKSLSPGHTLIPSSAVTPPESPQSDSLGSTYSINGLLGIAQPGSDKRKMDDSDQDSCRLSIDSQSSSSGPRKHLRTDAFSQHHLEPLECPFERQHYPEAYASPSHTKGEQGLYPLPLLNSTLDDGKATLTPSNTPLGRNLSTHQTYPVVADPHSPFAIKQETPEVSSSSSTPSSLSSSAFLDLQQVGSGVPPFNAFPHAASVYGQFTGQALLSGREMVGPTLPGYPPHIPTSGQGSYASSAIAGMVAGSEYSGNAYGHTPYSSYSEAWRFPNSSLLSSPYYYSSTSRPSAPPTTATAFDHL

[6] = molecular target: T3, Replicative DNA helicase DnaB (Mycobacterium tuberculosis, UniProt P9WMR3); assay: DnaB intein splicing inhibitors, dose response, biochemical, cell-free fluorescence (AID 449749); format: functional
T3 sequence (P9WMR3 whole entry): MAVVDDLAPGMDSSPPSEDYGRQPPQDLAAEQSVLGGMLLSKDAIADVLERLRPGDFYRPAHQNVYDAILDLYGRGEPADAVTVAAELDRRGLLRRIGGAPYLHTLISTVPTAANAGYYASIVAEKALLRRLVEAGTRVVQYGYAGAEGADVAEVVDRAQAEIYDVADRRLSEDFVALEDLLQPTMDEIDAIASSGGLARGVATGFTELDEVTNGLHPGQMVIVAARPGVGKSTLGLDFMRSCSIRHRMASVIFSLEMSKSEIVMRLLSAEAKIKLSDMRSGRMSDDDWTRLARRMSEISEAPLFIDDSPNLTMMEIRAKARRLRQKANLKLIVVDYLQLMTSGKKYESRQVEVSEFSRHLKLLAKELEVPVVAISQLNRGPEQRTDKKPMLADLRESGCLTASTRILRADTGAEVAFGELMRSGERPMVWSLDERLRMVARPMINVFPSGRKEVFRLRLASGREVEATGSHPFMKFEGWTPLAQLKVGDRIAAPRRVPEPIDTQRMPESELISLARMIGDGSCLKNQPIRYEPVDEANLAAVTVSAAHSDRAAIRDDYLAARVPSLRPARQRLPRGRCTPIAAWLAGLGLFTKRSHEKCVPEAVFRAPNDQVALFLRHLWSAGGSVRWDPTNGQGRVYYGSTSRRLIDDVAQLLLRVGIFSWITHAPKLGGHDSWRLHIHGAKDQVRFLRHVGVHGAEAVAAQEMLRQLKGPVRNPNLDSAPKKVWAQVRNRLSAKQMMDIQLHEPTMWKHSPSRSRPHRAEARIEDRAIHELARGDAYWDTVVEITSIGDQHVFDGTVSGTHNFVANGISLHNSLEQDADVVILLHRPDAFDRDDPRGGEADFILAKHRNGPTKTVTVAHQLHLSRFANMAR

H4 = assay: Luminescence Cell-Based Dose Response HTS to Identify Activators of 5'UTR Stem-Loop Driven Prion Protein mRNA Translation in H4 Neuroglioblastoma Cells. [Related pubchem assays: 1829 (Project Summary), 1814 (Primary HTS)]; format: functional; conditions: Homo sapiens
H9c2 = assay: cells; format: functional, cell-based; conditions: Rattus norvegicus, H9c2, Myocardium;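 also: confirmatory concentration-response retest of ultra-high-throughput screening hits for modulation of myocardial damage; cell death induced by hydrogen peroxide oxidative stress; compound pretreatment for 60 min then peroxide exposure for 2 h; potency is for protecting the cells against peroxide damage rather than for killing them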
[7] = molecular target: T4, Long-chain-fatty-acid--AMP ligase FadD28 (Mycobacterium tuberculosis, UniProt P9WQ59); assay: Fluorescence polarization aasay to screen for inhibitors that compete for the binding of FadD28 to a bisubstrate Measured in Biochemical System Using Plate Reader - 2147-01_Inhibitor_Dose_CherryPick_Activity.; format: functional, Mycobacterium tuberculosis H37Rv
T4 sequence (P9WQ59 whole entry): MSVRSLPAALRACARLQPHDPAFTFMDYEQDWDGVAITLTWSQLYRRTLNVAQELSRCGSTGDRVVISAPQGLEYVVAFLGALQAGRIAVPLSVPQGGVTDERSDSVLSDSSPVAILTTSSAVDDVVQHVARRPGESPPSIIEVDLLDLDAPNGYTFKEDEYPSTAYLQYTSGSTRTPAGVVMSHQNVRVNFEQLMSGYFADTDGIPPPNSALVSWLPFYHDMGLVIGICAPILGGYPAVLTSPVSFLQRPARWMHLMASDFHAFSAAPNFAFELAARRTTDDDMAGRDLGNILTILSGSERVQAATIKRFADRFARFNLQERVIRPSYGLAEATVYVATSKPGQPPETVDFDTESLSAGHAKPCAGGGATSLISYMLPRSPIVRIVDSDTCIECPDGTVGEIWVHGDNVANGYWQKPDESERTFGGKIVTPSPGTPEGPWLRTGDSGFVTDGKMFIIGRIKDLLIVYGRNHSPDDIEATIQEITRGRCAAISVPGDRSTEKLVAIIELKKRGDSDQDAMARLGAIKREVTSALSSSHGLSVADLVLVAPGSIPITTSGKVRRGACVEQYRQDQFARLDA

[8] = molecular target: T5, Methionyl-tRNA synthetase, putative (Trypanosoma brucei brucei, UniProt Q38C91); format: functional, Trypanosoma brucei brucei strain 927/4 GUTat10.1
T5 sequence (Q38C91 whole entry): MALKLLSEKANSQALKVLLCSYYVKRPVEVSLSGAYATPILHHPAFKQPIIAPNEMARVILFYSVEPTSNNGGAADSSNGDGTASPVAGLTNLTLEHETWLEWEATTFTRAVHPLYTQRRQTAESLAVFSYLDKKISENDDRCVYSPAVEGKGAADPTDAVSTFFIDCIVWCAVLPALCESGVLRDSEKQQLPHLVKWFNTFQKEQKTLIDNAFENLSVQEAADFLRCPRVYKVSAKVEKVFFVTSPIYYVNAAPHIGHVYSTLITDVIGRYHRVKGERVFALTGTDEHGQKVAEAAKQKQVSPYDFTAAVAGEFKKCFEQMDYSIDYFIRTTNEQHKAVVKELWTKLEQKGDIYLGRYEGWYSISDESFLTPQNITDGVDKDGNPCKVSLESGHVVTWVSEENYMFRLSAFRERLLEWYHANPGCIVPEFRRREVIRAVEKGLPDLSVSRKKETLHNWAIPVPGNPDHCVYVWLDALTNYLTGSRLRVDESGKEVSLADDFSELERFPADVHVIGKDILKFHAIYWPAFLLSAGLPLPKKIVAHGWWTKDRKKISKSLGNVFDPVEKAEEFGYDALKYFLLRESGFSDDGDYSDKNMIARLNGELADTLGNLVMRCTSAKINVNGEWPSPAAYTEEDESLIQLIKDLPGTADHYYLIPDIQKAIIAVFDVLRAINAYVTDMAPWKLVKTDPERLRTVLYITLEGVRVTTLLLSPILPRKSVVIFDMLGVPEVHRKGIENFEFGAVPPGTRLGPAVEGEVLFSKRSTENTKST

[9] = molecular target: T5, Methionyl-tRNA synthetase, putative; format: functional, Trypanosoma brucei brucei strain 927/4 GUTat10.1; remark: listed apart in the source
[10] = Counterscreen for inhibitors of Trypanosoma brucei methionyl tRNA synthetase (MetRS): Luminescence-based cell-based high throughput dose response assay to identify compounds that are cytotoxic to Jurkat human T lymphocyte cells.; format: functional
[11] = ADAM10 protease inhibitors, dose response, selectivity assay for ADAM17 exosite inhibitor project, biochemical, FRET peptide substrate, recombinant human ADAM10 (AID 743259);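 also: ADAM10 enzyme cleaving a FRET peptide substrate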
[12] = molecular target: T1, Disintegrin and metalloproteinase domain-containing protein 17; assay: exosite inhibitors of ADAM17, dose response, biochemical (AID 743260)
cells = format: functional, cell-based
[13] = molecular target: T6, Nuclear receptor subfamily 0 group B member 1 (Homo sapiens, UniProt P51843); format: functional, cell-based;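 also: HEK293T cells transfected with SF-1 and DAX-1 plus StAR promoter luciferase reporter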
T6 sequence (P51843 whole entry): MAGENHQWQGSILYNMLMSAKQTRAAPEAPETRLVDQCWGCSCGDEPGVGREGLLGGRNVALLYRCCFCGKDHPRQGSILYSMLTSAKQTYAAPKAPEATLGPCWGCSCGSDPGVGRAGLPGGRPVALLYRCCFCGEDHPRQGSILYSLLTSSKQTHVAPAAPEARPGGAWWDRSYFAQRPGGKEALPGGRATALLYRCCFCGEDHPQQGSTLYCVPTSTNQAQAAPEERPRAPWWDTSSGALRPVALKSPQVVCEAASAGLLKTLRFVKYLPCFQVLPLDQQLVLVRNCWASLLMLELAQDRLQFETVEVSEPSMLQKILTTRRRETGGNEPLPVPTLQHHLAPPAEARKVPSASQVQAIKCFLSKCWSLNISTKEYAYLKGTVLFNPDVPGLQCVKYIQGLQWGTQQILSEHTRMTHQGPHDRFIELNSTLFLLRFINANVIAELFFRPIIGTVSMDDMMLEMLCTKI

[14] = cytotoxicity in OVCAR8 ovarian cancer cells, dose response, PAX8 project, cell-based, plate reader, dry powder samples (AID 743197); format: functional; conditions: OVCAR-8
[15] = IGROV1 ovarian cancer cell cytotoxicity, dose response, PAX8 inhibitor project, plate reader, dry powder samples (AID 743043); format: functional, cell-based; conditions: IGROV-1
[16] = NIH:OVCAR-3 ovarian cancer cell cytotoxicity, dose response, PAX8 inhibitor project, plate reader, dry powder samples (AID 743044); format: functional, cell-based

T1 sequence (P78536 whole entry, the tested form may be a part): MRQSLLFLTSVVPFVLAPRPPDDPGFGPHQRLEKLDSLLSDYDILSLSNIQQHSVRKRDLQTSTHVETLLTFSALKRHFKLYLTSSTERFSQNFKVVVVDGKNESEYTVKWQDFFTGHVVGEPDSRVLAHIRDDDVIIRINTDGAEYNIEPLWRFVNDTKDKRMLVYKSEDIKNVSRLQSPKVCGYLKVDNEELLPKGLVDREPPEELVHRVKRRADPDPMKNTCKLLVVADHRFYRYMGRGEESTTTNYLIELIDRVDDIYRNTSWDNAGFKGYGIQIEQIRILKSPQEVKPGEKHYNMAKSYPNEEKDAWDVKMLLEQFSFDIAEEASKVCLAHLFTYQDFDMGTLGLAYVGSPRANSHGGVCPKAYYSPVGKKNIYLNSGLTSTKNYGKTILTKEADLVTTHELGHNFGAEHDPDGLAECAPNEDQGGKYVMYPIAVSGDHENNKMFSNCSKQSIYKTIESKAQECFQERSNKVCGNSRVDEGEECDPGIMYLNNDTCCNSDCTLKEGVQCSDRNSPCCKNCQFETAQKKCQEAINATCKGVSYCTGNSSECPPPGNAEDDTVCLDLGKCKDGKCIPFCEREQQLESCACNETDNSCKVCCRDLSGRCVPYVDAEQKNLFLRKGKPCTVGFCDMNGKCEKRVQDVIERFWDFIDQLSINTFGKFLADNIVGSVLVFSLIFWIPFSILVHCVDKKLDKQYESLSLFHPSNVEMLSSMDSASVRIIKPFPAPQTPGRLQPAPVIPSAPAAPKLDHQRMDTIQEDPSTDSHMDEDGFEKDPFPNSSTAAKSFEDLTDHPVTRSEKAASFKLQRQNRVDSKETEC

With COC(=O)C1=C(c2ccccc2OCc2ccccc2)C[C@@H]2CC[C@H]1N2C(=O)NCc1ccc(C(C)(C)C)cc1 the IC50 [1] was > 69.5 µM (inactive) and the IC50 [2] was > 69.5 µM (inactive).
With Cc1ccc(-n2c(S)nnc2Cc2ccccc2)cc1 the AC50 [3] was 3.74 µM (active).
In the case of Cc1ccc(-n2nc(C)c(NC(=O)CCl)c2C)cc1C, the EC50 [4] is reported as 115 µM (active), the AC50 [5] is reported as 39.5 µM (active) and the EC50 (Protein RecA) is reported as 16 µM (active). The AC50 (Paired box protein Pax-8) was 6.77 µM (active), the AC50 [6] was > 380 µM (inactive) and the EC50 (H4) was > 120 µM (not active).
With O=C(NO)c1ccc(C(=O)N(C2CCCCC2)C2CCCCC2)cc1 the IC50 [1] was 34.9 µM (inactive), the IC50 (H9c2) was > 79 µM (inactive) and the IC50 [2] was 14.6 µM (inactive).
In the case of O=C(NN1C(=O)/C(=C/c2ccc(O)cc2)SC1=S)c1cccc(O)c1, the AC50 [7] is reported as 62 µM (active), the IC50 [8] is reported as 44.6 µM (inactive) and the IC50 [9] is reported as 30.9 µM (inactive). The IC50 [10] was 83.3 µM (inactive).
In the case of COc1ccccc1/C=C/C1C(C(=O)OCC(C)C)=C(C)N=C2SCCC(=O)N21 (stereo unspecified), the IC50 [11] is reported as > 69.5 µM (inactive) and the IC50 [12] is reported as > 69.5 µM (inactive).
In the case of Clc1ccc(OCc2cc(-c3ccccc3)no2)c(Cl)c1, the IC50 (cells) is reported as > 67.5 µM (inactive) and the IC50 [13] is reported as > 67.5 µM (inactive).
In the case of FC(F)(F)c1cc(CCN2C(=S)NC[C@@H]2Cc2ccccc2)cc(C(F)(F)F)c1, the IC50 [1] is reported as > 69.5 µM (inactive).
With FC(F)(F)c1cc(CCN2C(S)=NC[C@@H]2Cc2ccccc2)cc(C(F)(F)F)c1 the IC50 [2] was 11.8 µM (inactive).
For Cc1cc(Cl)c2oc(C(=O)N(C)C3CCOC3)c(C)c2c1 (stereo unspecified), the IC50 (cells) was > 67.5 µM (inactive) and the IC50 [13] was > 67.5 µM (inactive).
For COC(=O)c1sccc1NC(=O)Nc1ccc(C)cc1, the IC50 (cells) was > 67.6 µM (inactive) and the IC50 [13] was > 67.6 µM (inactive).
For O=C1NC(=O)C(Cc2ccc(Cl)cc2)(c2ccccc2)N1 (stereo unspecified), the IC50 [11] was 29.4 µM (inactive) and the IC50 [12] was 3.67 µM (active).
In the case of O=C(Nc1ccc(F)cc1)N1C[C@@H]2N[C@H](C1)[C@@H]2c1ccc(-c2ccccc2F)cc1, the AC50 [5] is reported as 55.6 µM (active), the AC50 [14] is reported as > 70 µM (inactive) and the AC50 (Paired box protein Pax-8) is reported as 13.8 µM (active). The AC50 [15] was 42.5 µM (active) and the AC50 [16] was 32 µM (active).
In the case of COCC(=O)NC[C@@H]1[C@H](c2ccc(C3=CCCC3)cc2)[C@H](CO)N1C(=O)C1CC1, the AC50 [3] is reported as 0.499 µM (active).
With Cc1ccc(OCc2nnc(SC/C=C/c3ccccc3)n2Cc2ccco2)cc1 the IC50 [11] was 16 µM (inactive) and the IC50 [12] was > 69.6 µM (inactive).
